# Measured values reported in patent US20240245770A1, “COMPOSITIONS AND METHODS FOR TREATING NEUROMUSCULAR DISORDERS” (The Regents of the University of California, priority 2019, published 2024).
# Tested on: serum cytokine/chemokine/growth factor/ligands of ALS patient
# Assay: Serum Luminex, before and after NAC treatment
# Type: in vivo, human
# Description: (§1) Serum Luminex. Serum from patients were used to determine the levels of cytokine/chemokine/growth factor/ligands secretion using multiplex luminex assay. Scatter plot was prepared using the levels of cytokine/chemokine/growth factor/ligands in serum obtained at different dates from patients as compared to controls.
# Serum Luminex. Serum from patients were used to determine the levels of cytokine/chemokine/growth factor/ligands secretion using multiplex luminex assay.
# as §1
# [1] = JC sera Apr. 30, 2020 (NAC infusion)
# [2] = JC sera Jun. 22, 2020 (NAC infusion)
# [3] = JC sera Jun. 24, 2020 (NAC infusion)
# [4] = JC sera May 7, 2020 (NAC infusion)
# [5] = JC sera May 14, 2020 (NAC infusion)
# [6] = JC sera May 21, 2020 (NAC infusion)
# [7] = JC sera May 28, 2020 (NAC infusion)
# [8] = serum of ALS patient after NAC treatment
smiles,measurement,setting,value
"CC(=O)N[C@@H](CS)C(=O)O [NAC, N-Acetyl-Cysteine]",IL-5,"JC sera Apr. 30, 2020",2 pg/mL
same,IL-7,"JC sera Apr. 30, 2020",6.25 pg/mL
same,IL-8,"JC sera Apr. 30, 2020",4.28 pg/mL
same,IL-21,"JC sera Apr. 30, 2020",0.86 pg/mL
same,IL-23,"JC sera Apr. 30, 2020",138.55 pg/mL
same,MIP-1a,"JC sera Apr. 30, 2020",11.35 pg/mL
same,MIP-1b,"JC sera Apr. 30, 2020",17.78 pg/mL
same,TNFa,"JC sera Apr. 30, 2020",8.46 pg/mL
same,Franktalkine,[1],35.49 pg/mL
same,GM-CSF,[1],59.71 pg/mL
same,IFNg,[1],9.14 pg/mL
same,IL-1b,[1],1.03 pg/mL
same,IL-10,[1],5.71 pg/mL
same,IL-12p70,[1],2.32 pg/mL
same,ITAC,[1],14.07 pg/mL
same,MIP-3a,[1],8.17 pg/mL
same,IL-2,"JC sera Jun. 22, 2020",0.04 pg/mL
same,IL-4,"JC sera Jun. 22, 2020",15.17 pg/mL
same,IL-5,"JC sera Jun. 22, 2020",2.44 pg/mL
same,IL-6,"JC sera Jun. 22, 2020",3.33 pg/mL
same,IL-7,"JC sera Jun. 22, 2020",7.25 pg/mL
same,IL-8,"JC sera Jun. 22, 2020",5.21 pg/mL
same,IL-21,"JC sera Jun. 22, 2020",0.86 pg/mL
same,IL-23,"JC sera Jun. 22, 2020",158.41 pg/mL
same,MIP-1a,"JC sera Jun. 22, 2020",12.15 pg/mL
same,MIP-1b,"JC sera Jun. 22, 2020",24.21 pg/mL
same,TNFa,"JC sera Jun. 22, 2020",9.2 pg/mL
same,Franktalkine,[2],35.49 pg/mL
same,GM-CSF,[2],50.3 pg/mL
same,IFNg,[2],10.42 pg/mL
same,IL-1b,[2],0.91 pg/mL
same,IL-10,[2],8.54 pg/mL
same,IL-12p70,[2],2.32 pg/mL
same,IL-13,[2],5.03 pg/mL
same,IL-17A,[2],6.86 pg/mL
same,ITAC,[2],13.07 pg/mL
same,MIP-3a,[2],10.65 pg/mL
same,IL-2,"JC sera Jun. 24, 2020",0.17 pg/mL
same,IL-4,"JC sera Jun. 24, 2020",10.14 pg/mL
same,IL-5,"JC sera Jun. 24, 2020",2.1 pg/mL
same,IL-7,"JC sera Jun. 24, 2020",5.13 pg/mL
same,IL-8,"JC sera Jun. 24, 2020",4.47 pg/mL
same,IL-21,"JC sera Jun. 24, 2020",0.62 pg/mL
same,IL-23,"JC sera Jun. 24, 2020",106.21 pg/mL
same,MIP-1a,"JC sera Jun. 24, 2020",12.15 pg/mL
same,MIP-1b,"JC sera Jun. 24, 2020",27.78 pg/mL
same,TNFa,"JC sera Jun. 24, 2020",8.82 pg/mL
same,Franktalkine,[3],35.11 pg/mL
same,GM-CSF,[3],111.4 pg/mL
same,IFNg,[3],4.58 pg/mL
same,IL-1b,[3],0.77 pg/mL
same,IL-10,[3],23.69 pg/mL
same,IL-12p70,[3],1.64 pg/mL
same,IL-13,[3],3.95 pg/mL
same,IL-17A,[3],2.46 pg/mL
same,ITAC,[3],10.44 pg/mL
same,MIP-3a,[3],8.55 pg/mL
same,IL-2,"JC sera May 7, 2020",0.21 pg/mL
same,IL-4,"JC sera May 7, 2020",7.5 pg/mL
same,IL-5,"JC sera May 7, 2020",1.77 pg/mL
same,IL-6,"JC sera May 7, 2020",1.37 pg/mL
same,IL-7,"JC sera May 7, 2020",4.06 pg/mL
same,IL-8,"JC sera May 7, 2020",3.39 pg/mL
same,IL-21,"JC sera May 7, 2020",0.62 pg/mL
same,IL-23,"JC sera May 7, 2020",116.26 pg/mL
same,MIP-1a,"JC sera May 7, 2020",10.39 pg/mL
same,MIP-1b,"JC sera May 7, 2020",16.67 pg/mL
same,TNFa,"JC sera May 7, 2020",7.45 pg/mL
same,Franktalkine,[4],33.33 pg/mL
same,GM-CSF,[4],58.44 pg/mL
same,IFNg,[4],4.81 pg/mL
same,IL-1b,[4],0.72 pg/mL
same,IL-10,[4],6.63 pg/mL
same,IL-12p70,[4],1.6 pg/mL
same,IL-13,[4],3.99 pg/mL
same,IL-17A,[4],2.78 pg/mL
same,ITAC,[4],13.07 pg/mL
same,MIP-3a,[4],7.8 pg/mL
same,IL-2,"JC sera May 12, 2020",0 pg/mL
same,IL-4,"JC sera May 12, 2020",10.14 pg/mL
same,IL-6,"JC sera May 12, 2020",1.76 pg/mL
same,IL-7,"JC sera May 12, 2020",5.13 pg/mL
same,IL-8,"JC sera May 12, 2020",4.18 pg/mL
same,IL-21,"JC sera May 12, 2020",0.62 pg/mL
same,IL-23,"JC sera May 12, 2020",92.37 pg/mL
same,MIP-1a,"JC sera May 12, 2020",11.8 pg/mL
same,MIP-1b,"JC sera May 12, 2020",25.53 pg/mL
same,TNFa,"JC sera May 12, 2020",7.14 pg/mL
same,IL-2,"JC sera May 14, 2020",8.16 pg/mL
same,IL-4,"JC sera May 14, 2020",13.73 pg/mL
same,IL-5,"JC sera May 14, 2020",1.72 pg/mL
same,IL-6,"JC sera May 14, 2020",1.07 pg/mL
same,IL-7,"JC sera May 14, 2020",6.39 pg/mL
same,IL-8,"JC sera May 14, 2020",5.32 pg/mL
same,IL-21,"JC sera May 14, 2020",0.56 pg/mL
same,IL-23,"JC sera May 14, 2020",106.21 pg/mL
same,MIP-1a,"JC sera May 14, 2020",12.15 pg/mL
same,MIP-1b,"JC sera May 14, 2020",19.37 pg/mL
same,TNFa,"JC sera May 14, 2020",7.77 pg/mL
same,Franktalkine,[5],31.36 pg/mL
same,GM-CSF,[5],53.64 pg/mL
same,IFNg,[5],4.14 pg/mL
same,IL-1b,[5],0.8 pg/mL
same,IL-10,[5],4.47 pg/mL
same,IL-12p70,[5],1.81 pg/mL
same,IL-13,[5],4.08 pg/mL
same,IL-17A,[5],2.24 pg/mL
same,ITAC,[5],12.13 pg/mL
same,MIP-3a,[5],6.78 pg/mL
same,Franktalkine,[6],32.65 pg/mL
same,GM-CSF,[6],48.19 pg/mL
same,IFNg,[6],5.58 pg/mL
same,IL-1b,[6],0.8 pg/mL
same,IL-10,[6],3.7 pg/mL
same,IL-12p70,[6],1.72 pg/mL
same,IL-13,[6],3.99 pg/mL
same,ITAC,[6],15.13 pg/mL
same,MIP-3a,[6],6.78 pg/mL
same,IL-2,"JC sera May 28, 2020",0.01 pg/mL
same,IL-4,"JC sera May 28, 2020",11.8 pg/mL
same,IL-5,"JC sera May 28, 2020",2.21 pg/mL
same,IL-6,"JC sera May 28, 2020",2.03 pg/mL
same,IL-7,"JC sera May 28, 2020",5.99 pg/mL
same,IL-8,"JC sera May 28, 2020",4.47 pg/mL
same,IL-21,"JC sera May 28, 2020",0.75 pg/mL
same,IL-23,"JC sera May 28, 2020",144.83 pg/mL
same,MIP-1a,"JC sera May 28, 2020",11.46 pg/mL
same,MIP-1b,"JC sera May 28, 2020",25.53 pg/mL
same,TNFa,"JC sera May 28, 2020",8.64 pg/mL
same,Franktalkine,[7],37.04 pg/mL
same,GM-CSF,[7],75.6 pg/mL
same,IFNg,[7],8.94 pg/mL
same,IL-1b,[7],0.87 pg/mL
same,IL-10,[7],6.63 pg/mL
same,IL-12p70,[7],2.16 pg/mL
same,IL-13,[7],4.44 pg/mL
same,IL-17A,[7],5.49 pg/mL
same,ITAC,[7],14.77 pg/mL
same,MIP-3a,[7],8.17 pg/mL
same,serum cytokines of ALS patient compared to healthy twin after NAC treatment,"serum Luminex, Table 137",only IFN-g and TNF-α remained higher in ALS patient when compared to healthy twin
same,change of serum cytokines after NAC treatment,"serum from ALS patient, Table 138",Decrease in respective cytokines
same,Fractalkine,[8],39.89
same,GCSF,[8],82.17
same,IFNa2,[8],22.87
same,IFNg,[8],21.25
same,IL-6,[8],14.86
same,IL-12p40,[8],15.96
same,IL-12p70,[8],9.801
same,IL-17a,[8],14.45
same,Rantes,[8],9578
same,TNFa,"serum of ALS patient after NAC treatment, in pg/mL",29.18
